For orientation: Kd means the equilibrium constant for the complex coming apart. A higher Kd goes with a looser complex. By IC50 is commonly meant the point on the concentration scale where inhibition reaches its midpoint. Read a high IC50 as lower potency.

Assay [1] deals with T1, BRD4-BD2 (Homo sapiens, UniProt O60885).
T1 construct: made in house; host or cells: T7 phage grown in an E. coli host derived from BL21
Briefly: bromoKdELECT assay for binding affinity to BRD4-BD2. The note with it: Table 7. How it is done:
Compounds were tested using a bromoKdELECT assay. T7 phage strains displaying bromodomains were grown in parallel in 24-well blocks in an E. coli host derived from the BL21 strain. E. coli were grown to log-phase and infected with T7 phage from a frozen stock (multiplicity of infection=0.4) and incubated with shaking at 32° C. until lysis (90-150 minutes). The lysates were centrifuged (5,000×g) and filtered (0.2 μm) to remove cell debris. Streptavidin-coated magnetic beads were treated with biotinylated small molecule or acetylated peptide ligands for 30 minutes at room temperature to generate affinity resins for bromodomain assays. The liganded beads were blocked with excess biotin and washed with blocking buffer (SeaBlock (Pierce), 1% BSA, 0.05% Tween 20, 1 mM DTT) to remove unbound ligand and to reduce nonspecific phage binding. Binding reactions were assembled by combining bromodomains, liganded affinity beads, and test compounds in 1× binding buffer (17% SeaBlock, 0.33×PBS, 0.04% Tween 20, 0.02% BSA, 0.004% Sodium azide, 7.4 mM DTT). Test compounds were prepared as 1000× stocks in 100% DMSO. Kds were determined using an 11-point 3-fold compound dilution series with one DMSO control point. All compounds for Kd measurements are distributed by acoustic transfer (non-contact dispensing) in 100% DMSO. The compounds were then diluted directly into the assays such that the final concentration of DMSO was 0.09%. All reactions performed in polypropylene 384-well plates. Each was a final volume of 0.02 ml. The assay plates were incubated at room temperature with shaking for 1 hour and the affinity beads were washed with wash buffer (1×PBS, 0.05% Tween 20). The beads were then resuspended in elution buffer (1×PBS, 0.05% Tween 20, 2 μM non-biotinylated affinity ligand) and incubated at room temperature with shaking for 30 minutes. The bromodomain concentration in the eluates was measured by qPCR.

Assay [2] addresses T2, progesterone receptor ligand binding domain (LBD) (Homo sapiens, UniProt P06401).
T2 construct: GST-tagged PR LBD, Fluormone tracer, and compound were mixed; purchased Life Technologies A15905 or a15906
T2 sequence (P06401 679-913 limits assumed): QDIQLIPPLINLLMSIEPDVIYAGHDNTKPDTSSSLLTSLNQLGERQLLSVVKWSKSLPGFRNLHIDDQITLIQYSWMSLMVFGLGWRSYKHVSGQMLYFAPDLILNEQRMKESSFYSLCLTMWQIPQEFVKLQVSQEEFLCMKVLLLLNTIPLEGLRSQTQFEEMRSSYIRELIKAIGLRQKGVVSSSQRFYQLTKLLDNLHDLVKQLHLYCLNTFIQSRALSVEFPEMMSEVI
Briefly: FP assay (PolarScreen Progesterone Receptor Competitor Assay) for binding to progesterone receptor LBD. Conditions: GST-tagged PR LBD, Fluormone tracer, fluorescence polarization, 2 hours; Table 17. How it is done: Compounds were tested using the PolarScreen™ Progesterone Receptor Competitor Assay Kit (Life Technologies Cat #A15905 or a15906), as per the manufacturer's instructions. Briefly, GST-tagged PR LBD, Fluormone tracer, and compound were mixed and incubated for 2 hours at room temperature in the dark. Following incubation, the plates were spun at 3000×g for 30 seconds, then sealed with an optical adhesive cover, and fluorescence polarization was measured using appropriate excitation and emission filters with an EnVision Plate Reader (Perkin Elmer). Compound concentration vs. mP value were plotted in Prism (GraphPad). A four-parameter non-linear regression curve fit was applied to dose-response data to determine the half-maximal inhibitory concentration (IC50) for each test compound.
Background: Fluorescence polarisation rises when a labelled molecule tumbles more slowly, as on binding a larger partner.

In the case of `CCNC(=O)C[C@@H]1N=C(c2ccc(N3CCN(CC4CCN(c5ncc(C(=O)N[C@H]6C(C)(C)[C@H](Oc7ccc(C#N)c(Cl)c7)C6(C)C)cn5)CC4)CC3)cc2)c2c(sc(C)c2C)-n2c(C)nnc21` [Compound I-105, N-[3-(3-chloro-4-cyano-phenoxy)-2,2,4,4-tetramethyl-cyclobutyl]-2-[4-[[4-[4-[(9S)-9-[2-(ethylamino)-2-oxo-ethyl]-4,5,13-trimethyl-3-thia-1,8,11,12-tetrazatricyclo[8.3.0.02,6]trideca-2(6),4,7,10,12-pentaen-7-yl]phenyl]piperazin-1-yl]methyl]-1-piperidyl]pyrimidine-5-carboxamide], the Kd in assay [1] is 50 to 500 nM. The IC50 in assay [2] is 50 to 500 nM.
With `Cc1sc2c(c1C)C(c1ccc(OCCOC3CCN(c4ncc(C(=O)N[C@H]5C(C)(C)[C@H](Oc6ccc(C#N)c(Cl)c6)C5(C)C)cn4)CC3)cc1)=N[C@@H](CC(=O)OC(C)(C)C)c1nnc(C)n1-2` [Compound I-235, tert-butyl 2-((S)-4-(4-(2-((1-(5-(((1r,3r)-3-(3-chloro-4-cyanophenoxy)-2,2,4,4-tetramethylcyclobutyl)carbamoyl)pyrimidin-2-yl)piperidin-4-yl)oxy)ethoxy)phenyl)-2,3,9-trimethyl-6H-thieno[3,2-f][1,2,4]triazolo[4,3-a][1,4]diazepin-6-yl)acetate], the Kd in assay [1] is > 2500 nM. In addition, in assay [2], the IC50 was < 50 nM.

The record behind these values is patent publication US20260062422A1 (Halda Therapeutics OpCo, Inc., priority 2022, published 2026).
